Reference: US20120225062A1 (priority 2011, published 2012)

Experiments:
[1] = molecular target: Pim 2 (Homo sapiens, UniProt Q9P1W9); assay: Pim 2 AlphaScreen assay (high ATP)
Description: (§1) The activity of Pim 1, Pim 2, & Pim 3 is measured using a homogeneous bead based system quantifying the amount of phosphorylated peptide substrate resulting from kinase-catalyzed phosphoryl transfer to a peptide substrate. Compounds to be tested are dissolved in 100% DMSO and directly distributed to a white 384-well plate at 0.25 μl per well. […] This is followed by the addition of 5 μl/well of Pim 1, Pim 2 or Pim 3 kinase in assay buffer (concentrations described below). Final assay concentrations (described below) are in 2.5% DMSO. The reactions are performed for ˜2 hours, then stopped by the addition of 10 μl of 0.75 μg/ml anti-phospho Ser/Thr antibody (Cell Signaling), 10 μg/ml Protein A AlphaScreen beads (Perkin Elmer), and 10 μg/ml streptavidin coated AlphaScreen beads in stop/detection buffer (50 mM EDTA, 95 mM Tris, pH=7.5, 0.01% Tween-20). The stopped reactions are incubated overnight in the dark. The phosphorylated peptide is detected via an oxygen anion initiated chemiluminescence/fluorescence cascade using the Envision plate reader (Perkin Elmer).

[2] = molecular target: Pim 3 (Homo sapiens, UniProt Q86V86); assay: Pim 3 AlphaScreen assay (high ATP)
[3] = system: KMS11 (human myeloma cell line); assay: Cell Proliferation Assay (CellTiter-Glo, 3 days); assay type: cell-based; conditions: KMS-11, 72 h, KMS11-luc cells
Method in brief: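 EC50 from CellTiter-Glo luminescence after 3-day, 37° C compound treatment of KMS11 cells seeded at 2000 per well in IMDM plus 10% FBS.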

[4] = molecular target: Pim 1 (Homo sapiens, UniProt P11309); assay: Pim 1 AlphaScreen assay (high ATP)
Pim 1, sequence (P11309 whole entry): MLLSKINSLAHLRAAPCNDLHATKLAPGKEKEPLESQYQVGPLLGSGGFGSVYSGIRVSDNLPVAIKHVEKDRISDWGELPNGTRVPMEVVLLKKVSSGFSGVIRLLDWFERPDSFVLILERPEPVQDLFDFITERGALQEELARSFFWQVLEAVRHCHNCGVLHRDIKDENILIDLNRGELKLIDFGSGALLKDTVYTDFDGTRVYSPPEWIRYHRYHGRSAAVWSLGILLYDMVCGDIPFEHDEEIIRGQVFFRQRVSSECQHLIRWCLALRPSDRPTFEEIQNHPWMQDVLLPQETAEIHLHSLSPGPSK
Description: as §1

Pim 2, sequence (Q9P1W9 whole entry): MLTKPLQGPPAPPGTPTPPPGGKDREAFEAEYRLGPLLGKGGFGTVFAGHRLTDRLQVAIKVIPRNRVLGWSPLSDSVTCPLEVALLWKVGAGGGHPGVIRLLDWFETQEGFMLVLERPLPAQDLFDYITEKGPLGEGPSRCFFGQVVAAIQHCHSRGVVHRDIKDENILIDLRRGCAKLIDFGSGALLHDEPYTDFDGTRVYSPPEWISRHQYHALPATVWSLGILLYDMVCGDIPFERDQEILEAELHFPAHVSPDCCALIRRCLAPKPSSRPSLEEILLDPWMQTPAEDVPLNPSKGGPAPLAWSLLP

Compound	IC50 [1]	IC50 [2]	EC50 [3]	IC50 [4]
C[C@@H]1C[C@H](N)C[C@H](c2ccncc2NC(=O)c2ccc(F)c(-c3c(F)cc([C@@H]4CCOC4)cc3F)n2)C1 [Example 206, N-(4-((1R,3S,5S)-3-amino-5-methylcyclohexyl)pyridin-3-yl)-6-(2,6-difluoro-4-((S)-tetrahydrofuran-3-yl)phenyl)-5-fluoropicolinamide]	1.66 nM	0.8 nM	59 nM	0.01 nM
C[C@@H]1C[C@H](N)C[C@H](c2ccncc2NC(=O)c2ccc(F)c(-c3c(F)cc([S@+](C)[O-])cc3F)n2)C1 [Example 227, N-(4-((1R,3S,5S)-3-amino-5-methylcyclohexyl)pyridin-3-yl)-6-(2,6-difluoro-4-((S)-methylsulfinyl)phenyl)-5-fluoropicolinamide]	17.3 nM	23.9 nM	221 nM	0.16 nM
COC(=O)c1cc(F)c(-c2nc(C(=O)Nc3cnccc3N3C[C@@H](N)[C@H](O)[C@@H](C)C3)ccc2F)c(F)c1 [Example 215, methyl 4-(6-((4-((3R,4R,5S)-3-amino-4-hydroxy-5-methylpiperidin-1-yl)pyridin-3-yl)carbamoyl)-3-fluoropyridin-2-yl)-3,5-difluorobenzoate]	2.54 nM	0.88 nM	36 nM	0.06 nM
C[C@@H]1C[C@H](N)C[C@H](c2ccncc2NC(=O)c2ccc(F)c(-c3c(F)cc(OC[C@@H](O)CO)cc3F)n2)C1 [Example 3, N-(4-((1R,3S,5S)-3-amino-5-methylcyclohexyl)pyridin-3-yl)-6-(4-((S)-2,3-dihydroxypropoxy)-2,6-difluorophenyl)-5-fluoropicolinamide]	1.89 nM	0.55 nM	53 nM	0.03 nM
C[C@H]1C[C@@H](c2ccncc2NC(=O)c2ccc(F)c(-c3c(F)cc(CC(C)(C)O)cc3F)n2)C[C@@H](N)[C@@H]1O [Example 85, N-(4-((1R,3R,4R,5S)-3-amino-4-hydroxy-5-methylcyclohexyl)pyridin-3-yl)-6-(2,6-difluoro-4-(2-hydroxy-2-methylpropyl)phenyl)-5-fluoropicolinamide]	2.2 nM	1.34 nM	49 nM	0.05 nM
COc1ccc(F)c(-c2nc(C(=O)Nc3cnccc3[C@@H]3C[C@H](C)C[C@H](N)C3)ccc2F)c1F [Example 212, N-(4-((1R,3S,5S)-3-amino-5-methylcyclohexyl)pyridin-3-yl)-6-(2,6-difluoro-3-methoxyphenyl)-5-fluoropicolinamide]	3.77 nM	1.03 nM	50 nM	0.03 nM
C[C@H]1C[C@@H](c2ccncc2NC(=O)c2ccc(F)c(-c3c(F)cc(OCC(F)(F)F)cc3F)n2)C[C@@H](N)[C@@H]1O [Example 197, N-(4-((1R,3R,4R,5S)-3-amino-4-hydroxy-5-methylcyclohexyl)pyridin-3-yl)-6-(2,6-difluoro-4-(2,2,2-trifluoroethoxy)phenyl)-5-fluoropicolinamide]	2.56 nM	1.43 nM	619 nM	0.05 nM
CC(C)OCc1cc(F)c(-c2nc(C(=O)Nc3cnccc3[C@H]3C[C@@H](N)[C@H](O)[C@@H](C)C3)ccc2F)c(F)c1 [Example 148, N-(4-((1R,3R,4R,5S)-3-amino-4-hydroxy-5-methylcyclohexyl)pyridin-3-yl)-6-(2,6-difluoro-4-(isopropoxymethyl)phenyl)-5-fluoropicolinamide]	3.28 nM	1.47 nM	185 nM	0.05 nM
N#CC1(c2cc(F)c(-c3nc(C(=O)Nc4cnccc4[C@@H]4CCC[C@H](N)C4)ccc3F)c(F)c2)CCOCC1 [Example 172, N-(4-((1R,3S)-3-aminocyclohexyl)pyridin-3-yl)-6-(4-(4-cyanotetrahydro-2H-pyran-4-yl)-2,6-difluorophenyl)-5-fluoropicolinamide]	29.7 nM	19.6 nM	403 nM	0.08 nM
CCOc1ccc(F)c(-c2nc(C(=O)Nc3cnccc3N3C[C@@H](N)[C@H](O)[C@@H](C)C3)ccc2F)c1F [Example 216, N-(4-((3R,4R,5S)-3-amino-4-hydroxy-5-methylpiperidin-1-yl)pyridin-3-yl)-6-(3-ethoxy-2,6-difluorophenyl)-5-fluoropicolinamide]	2.02 nM	0.39 nM	28 nM	0.02 nM
C[C@@H]1C[C@H](N)C[C@H](c2ccncc2NC(=O)c2ccc(F)c(-c3c(F)cc(OC4CCOC4)cc3F)n2)C1 (stereo in doubt) [Example 71, N-(4-((1R,3S,5S)-3-amino-5-methylcyclohexyl)pyridin-3-yl)-6-(2,6-difluoro-4-((R)-tetrahydrofuran-3-yloxy)phenyl)-5-fluoropicolinamide]	2.21 nM	0.97 nM	48 nM	0.02 nM

Compounds with a lower IC50 [1], results first:

IC50 [1]	IC50 [2]	EC50 [3]	IC50 [4]	Compound
1.36 nM	0.42 nM	24 nM	0.02 nM	COC(C)(C)c1cc(F)c(-c2nc(C(=O)Nc3cnccc3N3C[C@@H](N)[C@H](O)[C@@H](C)C3)ccc2F)c(F)c1 [Example 130, N-(4-((3R,4R,5S)-3-amino-4-hydroxy-5-methylpiperidin-1-yl)pyridin-3-yl)-6-(2,6-difluoro-4-(2-methoxypropan-2-yl)phenyl)-5-fluoropicolinamide]
1.36 nM	0.42 nM	17 nM	0.01 nM	CC(C)[C@@H]1C[C@H](N)C[C@H](c2ccncc2NC(=O)c2ccc(F)c(-c3c(F)cc(C(C)(C)O)cc3F)n2)C1 [Example 119, N-(4-((1R,3S,5S)-3-amino-5-isopropylcyclohexyl)pyridin-3-yl)-6-(2,6-difluoro-4-(2-hydroxypropan-2-yl)phenyl)-5-fluoropicolinamide]
1.16 nM	0.24 nM	76 nM	0.01 nM	CC(C)Oc1cc(F)c(-c2nc(C(=O)Nc3cnccc3[C@@H]3C[C@H](C)C[C@H](N)C3)c(N)cc2F)c(F)c1 [Example 96, 3-amino-N-(4-((1R,3S,5S)-3-amino-5-methylcyclohexyl)pyridin-3-yl)-6-(2,6-difluoro-4-isopropoxyphenyl)-5-fluoropicolinamide]
1.3 nM	0.36 nM	30 nM	0.02 nM	C[C@H]1C[C@@H](c2ccncc2NC(=O)c2nc(-c3c(F)cc(C(C)(C)O)cc3F)c(F)cc2N)C[C@@H](N)[C@@H]1O [Example 101, 3-amino-N-(4-((1R,3R,4R,5S)-3-amino-4-hydroxy-5-methylcyclohexyl)pyridin-3-yl)-6-(2,6-difluoro-4-(2-hydroxypropan-2-yl)phenyl)-5-fluoropicolinamide]
0.94 nM	0.37 nM	11 nM	0.03 nM	C[C@H]1CN(c2ccncc2NC(=O)c2ccc(F)c(-c3c(F)cc([S@+](C)[O-])cc3F)n2)C[C@@H](N)[C@@H]1O [Example 25, N-(4-((3R,4R,5S)-3-amino-4-hydroxy-5-methylpiperidin-1-yl)pyridin-3-yl)-6-(2,6-difluoro-4-((S)-methylsulfinyl)phenyl)-5-fluoropicolinamide]
0.42 nM	0.21 nM	14 nM	0.01 nM	CCOCc1cc(F)c(-c2nc(C(=O)Nc3cnccc3[C@@H]3C[C@H](C)C[C@H](N)C3)ccc2F)c(F)c1 [Example 81, N-(4-((1R,3S,5S)-3-amino-5-methylcyclohexyl)pyridin-3-yl)-6-(4-(ethoxymethyl)-2,6-difluorophenyl)-5-fluoropicolinamide]
0.92 nM	0.58 nM	145 nM	0.02 nM	C[C@H]1C[C@@H](c2ccncc2NC(=O)c2ccc(F)c(-c3c(F)cc4c(c3F)OCC4)n2)C[C@@H](N)[C@@H]1O [Example 180, N-(4-((1R,3R,4R,5S)-3-amino-4-hydroxy-5-methylcyclohexyl)pyridin-3-yl)-6-(5,7-difluoro-2,3-dihydrobenzofuran-6-yl)-5-fluoropicolinamide]
1.44 nM	0.93 nM	25 nM	0.02 nM	COC1(c2cc(F)c(-c3nc(C(=O)Nc4cnccc4[C@H]4C[C@@H](N)[C@H](O)[C@@H](C)C4)c(N)cc3F)c(F)c2)COC1 [Example 91, 3-amino-N-(4-((1R,3R,4R,5S)-3-amino-4-hydroxy-5-methylcyclohexyl)pyridin-3-yl)-6-(2,6-difluoro-4-(3-methoxyoxetan-3-yl)phenyl)-5-fluoropicolinamide]
1.23 nM	0.56 nM	22 nM	0.02 nM	C[C@H]1C[C@@H](c2ccncc2NC(=O)c2ccc(F)c(-c3c(F)cc(O[C@@H]4CCCOC4)cc3F)n2)C[C@@H](N)[C@@H]1O [Example 78, N-(4-((1R,3R,4R,5S)-3-amino-4-hydroxy-5-methylcyclohexyl)pyridin-3-yl)-6-(2,6-difluoro-4-((R)-tetrahydro-2H-pyran-3-yloxy)phenyl)-5-fluoropicolinamide]
1.09 nM	0.68 nM	251 nM	0.01 nM	C[C@@H]1C[C@H](N)C[C@H](c2ccncc2NC(=O)c2ccc(F)c(-c3c(F)cc(C4CCS(=O)(=O)CC4)cc3F)n2)C1 [Example 202, N-(4-((1R,3S,5S)-3-amino-5-methylcyclohexyl)pyridin-3-yl)-6-(4-(1,1-dioxidotetrahydro-2H-thiopyran-4-yl)-2,6-difluorophenyl)-5-fluoropicolinamide]
